Measurements published in patent US11267825B2 (AICURIS GMBH & CO. KG, priority 2017, dated 2022).

Experiments:
HBV = test: Determination of HBV DNA from the supernatants of HepAD38 cells (anti-HBV activity); format: cell-based, hepatitis B virus; conditions: Hepatitis B virus, 144 h; HBV DNA in HepAD38 supernatant at day 6; read-out: Cell Activity (EC50)
Outline: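 HepAD38 cells (60,000/well) were treated with half-log compound dilutions in tetracycline-free medium to induce HBV production. On day 6, HBV DNA was purified from filtered supernatant and quantified by real-time PCR against plasmid standards. EC50 values came from non-linear regression of relative copy numbers, typically from three experiments in triplicate.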

HBV core protein = HBV core protein (UniProt P03146); format: biochemical; conditions: read-out: Assembly Activity (IC50); BODIPY-FL labelled core protein, assembly started with NaCl, read after 6 min
HBV core protein, sequence (P03146 whole entry, looked up): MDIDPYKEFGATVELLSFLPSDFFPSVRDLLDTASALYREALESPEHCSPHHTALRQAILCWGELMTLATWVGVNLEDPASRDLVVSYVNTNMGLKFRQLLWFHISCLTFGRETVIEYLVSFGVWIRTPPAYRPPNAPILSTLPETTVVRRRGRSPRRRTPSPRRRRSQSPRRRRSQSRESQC
Outline: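 Fluorescence-quenching assembly assay using E. coli-expressed core protein 1–149 plus Cys150, labelled with BODIPY-FL maleimide, at 1.0–2.0 μM in 50 mM HEPES pH 7.5, 0.5% DMSO. Assembly started with NaCl to […]; fluorescence (ex 477/em 525 nm) read after 6 min. EC50 by non-linear regression, 8-point 0.5-log dilutions.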

Cc1nc2c(s1)CN(C(=O)c1cc3c(F)ccc(F)c3[nH]1)CC2 [Example 191, 4,7-difluoro-2-{2-methyl-4H,5H,6H,7H-[1,3]thiazolo[5,4-c]pyridine-5-carbonyl}-1H-indole]
EC50 (HBV): < 1000 nM | IC50 (HBV core protein): 5 to 10 µM

Cc1nc2c(s1)CN(C(=O)c1cc3c(Cl)cc(Cl)cc3[nH]1)CC2 [Example 188, 4,6-dichloro-2-{2-methyl-4H,5H,6H,7H-[1,3]thiazolo[5,4-c]pyridine-5-carbonyl}-1H-indole]
EC50 (HBV): 1000 to 10000 nM | IC50 (HBV core protein): 5 to 10 µM

Nc1nc2c(s1)CN(C(=O)c1cc3cc(F)c(Cl)cc3[nH]1)CC2 [Example 277, 5-(6-chloro-5-fluoro-1H-indole-2-carbonyl)-4H,5H,6H,7H-[1,3]thiazolo[5,4-c]pyridin-2-amine]
EC50 (HBV): < 1000 nM | IC50 (HBV core protein): < 5 µM

O=C(c1cc2c(C(F)F)cccc2[nH]1)N1CCc2nc(NCC3CCOC3)sc2C1 (stereo not shown) [Example 325, 5-[4-(difluoromethyl)-1H-indole-2-carbonyl]-N-[(oxolan-3-yl)methyl]-4H,5H,6H,7H-[1,3]thiazolo[5,4-c]pyridin-2-amine]
EC50 (HBV): < 1000 nM | IC50 (HBV core protein): < 5 µM

N#Cc1cccc2[nH]c(C(=O)N3CCc4nc(NCC5CCOC5)sc4C3)cc12 (stereo not shown) [Example 104, 5-(4-cyano-1H-indole-2-carbonyl)-N-[(oxolan-3-yl)methyl]-4H,5H,6H,7H-[1,3]thiazolo[5,4-c]pyridin-2-amine]
EC50 (HBV): 1000 to 10000 nM | IC50 (HBV core protein): 5 to 10 µM

Cc1nc2c(s1)CN(C(=O)c1cc3cccc(OC(F)(F)F)c3[nH]1)CC2 [Example 183, 2-{2-methyl-4H,5H,6H,7H-[1,3]thiazolo[5,4-c]pyridine-5-carbonyl}-7-(trifluoromethoxy)-1H-indole]
EC50 (HBV): < 100000 nM | IC50 (HBV core protein): < 100 µM

O=C(c1cc2c(F)c(F)ccc2[nH]1)N1CCc2nc(NCC3(O)CCC3)sc2C1 [Example 375, 1-({[5-(4,5-difluoro-1H-indole-2-carbonyl)-4H,5H,6H,7H-[1,3]thiazolo[5,4-c]pyridin-2-yl]amino}methyl)cyclobutan-1-ol]
EC50 (HBV): < 1000 nM | IC50 (HBV core protein): < 5 µM

CC(CO)CNc1nc2c(s1)CN(C(=O)c1cc3ccccc3[nH]1)CC2 (stereo not shown) [Example 217, 3-{[5-(1H-indole-2-carbonyl)-4H,5H,6H,7H-[1,3]thiazolo[5,4-c]pyridin-2-yl]amino}-2-methylpropan-1-ol]
EC50 (HBV): < 1000 nM | IC50 (HBV core protein): < 5 µM

Cc1cc(F)cc2[nH]c(C(=O)N3CCc4nc(NCC5CCOC5)sc4C3)cc12 (stereo not shown) [Example 120, 5-(6-fluoro-4-methyl-1H-indole-2-carbonyl)-N-[(oxolan-3-yl)methyl]-4H,5H,6H,7H-[1,3]thiazolo[5,4-c]pyridin-2-amine]
EC50 (HBV): < 1000 nM | IC50 (HBV core protein): < 5 µM

Cc1nc2c(s1)CN(C(=O)c1cc3c(Cl)ccc(Cl)c3[nH]1)CC2 [Example 186, 4,7-dichloro-2-{2-methyl-4H,5H,6H,7H-[1,3]thiazolo[5,4-c]pyridine-5-carbonyl}-1H-indole]
EC50 (HBV): < 100000 nM | IC50 (HBV core protein): < 100 µM

CCNC(=O)C1(CNc2nc3c(s2)CN(C(=O)c2cc4ccccc4[nH]2)CC3)CCC1 [Example 417, N-ethyl-1-({[5-(1H-indole-2-carbonyl)-4H,5H,6H,7H-[1,3]thiazolo[5,4-c]pyridin-2-yl]amino}methyl)cyclobutane-1-carboxamide]
EC50 (HBV): < 1000 nM | IC50 (HBV core protein): < 5 µM

O=C(c1cc2c(F)cc(F)c(F)c2[nH]1)N1CCc2nc(NCC3CCOC3)sc2C1 (stereo not shown) [Example 106, 5-(4,6,7-trifluoro-1H-indole-2-carbonyl)-N-[(oxolan-3-yl)methyl]-4H,5H,6H,7H-[1,3]thiazolo[5,4-c]pyridin-2-amine]
EC50 (HBV): < 1000 nM | IC50 (HBV core protein): < 5 µM

O=C(c1cc2ccccc2[nH]1)N1CCc2nc(NCC3(O)CCC3)sc2C1 [Example 46, 1-({[5-(1H-indole-2-carbonyl)-4H,5H,6H,7H-[1,3]thiazolo[5,4-c]pyridin-2-yl]amino}methyl)cyclobutan-1-ol]
EC50 (HBV): < 1000 nM | IC50 (HBV core protein): < 5 µM

CC(C)(C)OC(=O)N1CCOCC1CNc1nc2c(s1)CN(C(=O)c1cc3ccccc3[nH]1)CC2 (stereo not shown) [Example 238, tert-butyl 3-({[5-(1H-indole-2-carbonyl)-4H,5H,6H,7H-[1,3]thiazolo[5,4-c]pyridin-2-yl]amino}methyl)morpholine-4-carboxylate]
EC50 (HBV): 1000 to 10000 nM | IC50 (HBV core protein): < 100 µM

CC(C)(C)C(=O)Nc1nc2c(s1)CN(C(=O)c1cc3ccccc3[nH]1)CC2 [Example 275, N-[5-(1H-indole-2-carbonyl)-4H,5H,6H,7H-[1,3]thiazolo[5,4-c]pyridin-2-yl]-2,2-dimethylpropanamide]
EC50 (HBV): < 1000 nM | IC50 (HBV core protein): 5 to 10 µM

CC(O)CNc1nc2c(s1)CN(C(=O)c1cc3ccccc3[nH]1)CC2 (stereo not shown) [Example 178, 1-{[5-(1H-indole-2-carbonyl)-4H,5H,6H,7H-[1,3]thiazolo[5,4-c]pyridin-2-yl]amino}propan-2-ol]
EC50 (HBV): < 1000 nM | IC50 (HBV core protein): < 5 µM

Nc1nc2c(s1)CN(C(=O)c1cc3ccc(F)cc3[nH]1)CC2 [Example 197, 5-(6-fluoro-1H-indole-2-carbonyl)-4H,5H,6H,7H-[1,3]thiazolo[5,4-c]pyridin-2-amine]
EC50 (HBV): < 1000 nM | IC50 (HBV core protein): < 5 µM

CCOC(=O)N1CCC(Nc2nc3c(s2)CN(C(=O)c2cc4ccccc4[nH]2)CC3)CC1 [Example 5, Ethyl 4-{[5-(1H-indole-2-carbonyl)-4H,5H,6H,7H-[1,3]thiazolo[5,4-c]pyridin-2-yl]amino}piperidine-1-carboxylate]
EC50 (HBV): < 1000 nM | IC50 (HBV core protein): 5 to 10 µM

Cc1nc2c(s1)CN(C(=O)c1cc3cc(F)cc(F)c3[nH]1)CC2 [Example 163]
EC50 (HBV): < 1000 nM | IC50 (HBV core protein): < 5 µM

O=C(c1cc2ccccc2[nH]1)N1CCc2nc(NC3CCOC3)sc2C1 (stereo not shown) [Example 180, 5-(1H-indole-2-carbonyl)-N-(oxolan-3-yl)-4H,5H,6H,7H-[1,3]thiazolo[5,4-c]pyridin-2-amine]
EC50 (HBV): < 1000 nM | IC50 (HBV core protein): < 5 µM

CC(C)Nc1nc2c(s1)CN(C(=O)c1cc3ccccc3[nH]1)CC2 [Example 128, 5-(1H-indole-2-carbonyl)-N-(propan-2-yl)-4H,5H,6H,7H-[1,3]thiazolo[5,4-c]pyridin-2-amine]
EC50 (HBV): < 1000 nM | IC50 (HBV core protein): < 5 µM

CC1(C)OCC(CNc2nc3c(s2)CN(C(=O)c2cc4ccccc4[nH]2)CC3)O1 (stereo not shown) [Example 205, N-[(2,2-dimethyl-1,3-dioxolan-4-yl)methyl]-5-(1H-indole-2-carbonyl)-4H,5H,6H,7H-[1,3]thiazolo[5,4-c]pyridin-2-amine]
EC50 (HBV): < 1000 nM | IC50 (HBV core protein): 5 to 10 µM

N#Cc1nc2c(s1)CN(C(=O)c1cc3ccccc3[nH]1)CC2 [Example 203, 5-(1H-indole-2-carbonyl)-4H,5H,6H,7H-[1,3]thiazolo[5,4-c]pyridine-2-carbonitrile]
EC50 (HBV): < 100000 nM | IC50 (HBV core protein): < 100 µM

CC(C)OC1(CNc2nc3c(s2)CN(C(=O)c2cc4ccccc4[nH]2)CC3)CCC1 [Example 413, 5-(1H-indole-2-carbonyl)-N-{[1-(propan-2-yloxy)cyclobutyl]methyl}-4H,5H,6H,7H-[1,3]thiazolo[5,4-c]pyridin-2-amine]
EC50 (HBV): < 1000 nM | IC50 (HBV core protein): < 5 µM

O=C(c1cc2ccccc2[nH]1)N1CCc2nc(NCC3(CO)CC3)sc2C1 [Example 87, [1-({[5-(1H-indole-2-carbonyl)-4H,5H,6H,7H-[1,3]thiazolo[5,4-c]pyridin-2-yl]amino}methyl)cyclopropyl]methanol]
EC50 (HBV): < 1000 nM | IC50 (HBV core protein): < 5 µM

Nc1nc2c(s1)CN(C(=O)c1cc3c(Cl)ccc(Cl)c3[nH]1)CC2 [Example 177, 5-(4,7-dichloro-1H-indole-2-carbonyl)-4H,5H,6H,7H-[1,3]thiazolo[5,4-c]pyridin-2-amine]
EC50 (HBV): < 100000 nM | IC50 (HBV core protein): < 100 µM

O=C(c1cc2ccccc2[nH]1)N1CCc2nc(NCC3CCCCO3)sc2C1 (stereo not shown) [Example 35, 5-(1H-indole-2-carbonyl)-N-[(oxan-2-yl)methyl]-4H,5H,6H,7H-[1,3]thiazolo[5,4-c]pyridin-2-amine]
EC50 (HBV): < 1000 nM | IC50 (HBV core protein): 5 to 10 µM

NCCNc1nc2c(s1)CN(C(=O)c1cc3ccccc3[nH]1)CC2 [Example 179, N1-[5-(1H-indole-2-carbonyl)-4H,5H,6H,7H-[1,3]thiazolo[5,4-c]pyridin-2-yl]ethane-1,2-diamine]
EC50 (HBV): 1000 to 10000 nM | IC50 (HBV core protein): 5 to 10 µM

Nc1nc2c(s1)CN(C(=O)c1cc3c(Cl)c(F)ccc3[nH]1)CC2 [Example 80, 5-(4-chloro-5-fluoro-1H-indole-2-carbonyl)-4H,5H,6H,7H-[1,3]thiazolo[5,4-c]pyridin-2-amine]
EC50 (HBV): < 1000 nM | IC50 (HBV core protein): < 5 µM

Cc1c(Cl)ccc2cc(C(=O)N3CCc4nc(N)sc4C3)[nH]c12 [Example 134, 5-(6-chloro-7-methyl-1H-indole-2-carbonyl)-4H,5H,6H,7H-[1,3]thiazolo[5,4-c]pyridin-2-amine]
EC50 (HBV): < 1000 nM | IC50 (HBV core protein): < 5 µM

O=C(Nc1nc2c(s1)CN(C(=O)c1cc3ccccc3[nH]1)CC2)C1CCCCO1 (stereo not shown) [Example 315, N-[5-(1H-indole-2-carbonyl)-4H,5H,6H,7H-[1,3]thiazolo[5,4-c]pyridin-2-yl]oxane-2-carboxamide]
EC50 (HBV): < 1000 nM | IC50 (HBV core protein): 5 to 10 µM

Cc1cc(F)cc2[nH]c(C(=O)N3CCc4nc(NCC5(CO)CC5)sc4C3)cc12 [Example 271, [1-({[5-(6-fluoro-4-methyl-1H-indole-2-carbonyl)-4H,5H,6H,7H-[1,3]thiazolo[5,4-c]pyridin-2-yl]amino}methyl)cyclopropyl]methanol]
EC50 (HBV): < 1000 nM | IC50 (HBV core protein): < 5 µM
